From patent US9975881B2, “Compound” (ASTRAZENECA AB, priority 2011, dated 2018)

Target: T1, human CXCR2 (Homo sapiens, UniProt P25025)
T1 construct: expressed in transfected cells
T1 sequence (P25025 1-360): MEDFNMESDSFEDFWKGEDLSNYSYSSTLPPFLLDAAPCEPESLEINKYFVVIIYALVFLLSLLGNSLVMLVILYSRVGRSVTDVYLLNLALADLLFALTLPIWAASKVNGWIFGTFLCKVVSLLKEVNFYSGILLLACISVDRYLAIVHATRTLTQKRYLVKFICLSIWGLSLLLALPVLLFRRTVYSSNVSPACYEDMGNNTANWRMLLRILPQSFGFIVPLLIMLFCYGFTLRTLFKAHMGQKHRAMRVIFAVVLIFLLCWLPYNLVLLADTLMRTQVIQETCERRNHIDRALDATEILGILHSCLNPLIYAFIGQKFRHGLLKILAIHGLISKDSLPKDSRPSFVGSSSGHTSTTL
Experiment: Potency (pIC50) - ligand binding assay, Alexa647 IL-8 displacement from CXCR2 membranes
Details: 50% reduction in specific Alexa647 IL-8 (1 nM) binding to HEK293 human CXCR2 membranes
Excerpt: Potency (pIC50)—Ligand Binding Assay
Human Embryonic Kidney 293 cells (HEK293 cells) from the American Type Culture Collection were transfected with human CXCR2 cDNA (RefSeqNM_001557), previously cloned into the eukaryotic expression vector pIRES-Neo2, (Clontech). Populations of Geneticin (Invitrogen)-resistant cells were selected for stable expression of CXCR2 and clones were generated by dilution cloning (0.3 cells/well) in 96-well tissue culture plates.
Cells of the highest expressing clone (Clone 6, identified by FACS analysis) were harvested, following 24 hour pre-treatment with 5 mM sodium butyrate, in 10 ml of ice-cold hypotonic buffer (20 mM HEPES, 1 mM EDTA, 0.1 mM DTT, 0.1 mM Phenyl Methyl Sulphonyl Fluoride and 0.1 mg/L Bacitracin, pH7.4) and left to swell for 10 min. Following centrifugation (200 g, 5 min, 4° C.), cells were resuspended in hypotonic buffer and membranes were prepared using a polytron tissue homogenizer (3×10 second treatments). […]
All assays were performed in black, 384-well plates (Greiner). […] Total binding of Alexa^647 IL-8 was determined in the absence of competing compound and non-specific binding of Alexa^647 IL-8 was determined in the presence of 0.3 μM 1-(4-chloro-2-hydroxy-3-sulfamoyl-phenyl)-3-(2,3-dichlorophenyl)urea. […]

With `CC1CN(S(=O)(=O)Nc2cc(O[C@H](C)[C@@H](O)CO)nc(SCc3ccc(F)cc3)n2)C1` [Example 1, N-(6-((2R,3S)-3,4-Dihydroxybutan-2-yloxy)-2-(4-fluorobenzylthio)pyrimidin-4-yl)-3-methylazetidine-1-sulfonamide] the IC50 was 3.98 nM.
